In patent US10273221B2, “Microbiocidal heterobicyclic derivatives” (Syngenta Participations AG, priority 2015, dated 2019):

Legend:
[1] = test system: Botryotinia fuckeliana (Botrytis cinerea); experiment: Botryotinia fuckeliana (Botrytis cinerea) / liquid culture (gray mould); assay type: cell-based; settings: growth inhibition determined photometrically 3-4 days after application, vs untreated control, read-out: disease control
Fusarium culmorum = experiment: microbe, parasite or virus in culture; assay type: cell-based; settings: 72 h, read-out: disease control
Gaeumannomyces graminis = Gaeumannomyces graminis / liquid culture (take-all of cereals); assay type: cell-based; settings: growth inhibition determined photometrically 4-5 days after application, vs untreated control, read-out: disease control
[2] = test system: Glomerella lagenarium (Colletotrichum lagenarium); experiment: Glomerella lagenarium (Colletotrichum lagenarium) / liquid culture (anthracnose); assay type: cell-based; settings: Colletotrichum orbiculare, growth inhibition measured photometrically 3-4 days after application, vs untreated control, read-out: disease control
[3] = test system: Monographella nivalis (Microdochium nivale); experiment: Monographella nivalis (Microdochium nivale) / liquid culture (foot rot cereals); assay type: cell-based; settings: 96 h, growth inhibition determined photometrically 4-5 days after application, vs untreated control, read-out: disease control
[4] = test system: Mycosphaerella graminicola (Septoria tritici); experiment: Mycosphaerella graminicola (Septoria tritici) / liquid culture (Septoria blotch); assay type: cell-based; settings: Zymoseptoria tritici, 96 h, growth inhibition determined photometrically 4-5 days after application, vs untreated control, read-out: disease control
[5] = test system: Magnaporthe grisea (Pyricularia oryzae); experiment: microbe, parasite or virus in culture; assay type: cell-based; settings: 72 h, read-out: control of Magnaporthe grisea
Pyrenophora teres [6] = experiment: Pyrenophora teres / liquid culture (net blotch); assay type: cell-based; settings: growth inhibition determined photometrically 3-4 days after application, vs untreated control
Sclerotinia sclerotiorum = Sclerotinia sclerotiorum / liquid culture (cottony rot); settings: 72 h, read-out: control of Sclerotinia sclerotiorum
Description: Sclerotinia sclerotiorum/Liquid Culture (Cottony Rot)
Mycelia fragments of a newly grown liquid culture of the fungus are directly mixed into nutrient broth (Vogels broth). After placing a (DMSO) solution of test compound into a microtiter plate (96-well format) the nutrient broth containing the fungal material is added. The test plates are incubated at 24° C. and the inhibition of growth is determined photometrically 3-4 days after application.

Pyrenophora teres [7] = experiment: Pyrenophora teres / barley / leaf disc preventative (net blotch); assay type: in vivo; settings: 200 ppm, barley leaf segments cv. Hasso, inoculated 2 days after application, assessed 5-7 days after application
Description: Pyrenophora teres/Barley/Leaf Disc Preventative (Net Blotch)
Barley leaf segments cv. Hasso are placed on agar in a multiwell plate (24-well format) and sprayed with the formulated test compound diluted in water. The leaf segmens are inoculated with a spore suspension of the fungus 2 days after application. The inoculated leaf segments are incubated at 20° C. and 65% rh under a light regime of 12 h light/12 h darkness in a climate cabinet and the activity of a compound is assessed as disease control compared to untreated when an appropriate level of disease damage appears in untreated check leaf segments (5-7 days after application).

Row | Structure (SMILES) | inhibition of growth at 200 ppm [1] [%] | inhibition of growth at 200 ppm (Fusarium culmorum) [%] | inhibition of growth at 200 ppm (Gaeumannomyces graminis) [%] | inhibition of growth at 200 ppm [2] [%] | inhibition of growth at 200 ppm [3] [%] | inhibition of growth at 200 ppm [4] [%] | inhibition of growth at 20 ppm [5] [%] | inhibition of growth at 20 ppm (Pyrenophora teres [6]) [%] | melting point [°C] | inhibition of growth at 20 ppm (Sclerotinia sclerotiorum) [%] | control of Pyrenophora teres (Pyrenophora teres [7])
1 | Cc1cccc2c1ncn2C1=NC(C)(C)C(C)(C)c2c(F)cccc21 [E-1] | ≥ 80 | ≥ 80 | ≥ 80 | ≥ 80 | ≥ 80 | ≥ 80 | ≥ 80 | ≥ 80 | 45 to 46 | ≥ 80 | –
2 | Cc1cccc2c1ncn2C1=NC(C)(C)C(C)(C)c2ccccc21 [E-16] | ≥ 80 | ≥ 80 | ≥ 80 | ≥ 80 | ≥ 80 | – | ≥ 80 | ≥ 80 | – | ≥ 80 | at least 80%
3 | Cc1ccc2c(ncn2C2=NC(C)(C)C(C)(C)c3c(F)cccc32)c1C [E-18] | ≥ 80 | ≥ 80 | ≥ 80 | ≥ 80 | ≥ 80 | ≥ 80 | ≥ 80 | ≥ 80 | – | ≥ 80 | –
4 | Cc1cccc2c1C(F)(F)C(C)(C)N=C2n1cnc2c(C)cccc21 [E-21] | ≥ 80 | ≥ 80 | ≥ 80 | ≥ 80 | ≥ 80 | ≥ 80 | ≥ 80 | ≥ 80 | – | ≥ 80 | –
5 | Cc1cccc2c1C(F)(F)C(C)(C)N=C2n1cnc2c(C)c(C)ccc21 [E-22] | ≥ 80 | ≥ 80 | – | ≥ 80 | ≥ 80 | ≥ 80 | ≥ 80 | ≥ 80 | – | ≥ 80 | –
6 | Cc1c(F)ccc2c1ncn2C1=NC(C)(C)C(F)(F)c2ccccc21 [E-32] | ≥ 80 | ≥ 80 | ≥ 80 | ≥ 80 | ≥ 80 | ≥ 80 | ≥ 80 | – | 118 to 121 | ≥ 80 | –
